Test results from paper PMC9046087, “Structural basis of tethered agonism of the adhesion GPCRs ADGRD1 and ADGRF1” (Nature, 2022).
Ends that are not written are not given here.

Legend:
ADGRF1 [1] = biological target: T1, ADGRF1 (Homo sapiens, UniProt Q5T601, L752A); assay: BRET assay using TRUPATH biosensors, Gi activation of ADGRF1; assay type: cell-based; settings: ADGRF1 L752^5.44bA
T1 construct: Flag (N); expressed in transfected cells; host or cells: HEK293F
In short: (§1)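 G protein activation by synthetic stalk peptides, read as GFP2-to-RLuc8 emission ratio from the fifth of five successive readings. Cells: HEK293F expressing receptor (WT or mutant) with GαsS-RLuc8 or Gαi1-RLuc8 plus Gβ3 and Gγ9-GFP2 (2:1:1:1). Pre-incubated 30 min at 37 °C; substrate coelenterazine 400a.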

ADGRF1 [2] = biological target: T2, ADGRF1 (Homo sapiens, UniProt Q5T601, F690A); assay: as above; assay type: cell-based; settings: ADGRF1 F690^ICL2A
T2 construct: Flag (N); expressed in transfected cells; host or cells: HEK293F
T2 sequence (Q5T601 20-910 F690A): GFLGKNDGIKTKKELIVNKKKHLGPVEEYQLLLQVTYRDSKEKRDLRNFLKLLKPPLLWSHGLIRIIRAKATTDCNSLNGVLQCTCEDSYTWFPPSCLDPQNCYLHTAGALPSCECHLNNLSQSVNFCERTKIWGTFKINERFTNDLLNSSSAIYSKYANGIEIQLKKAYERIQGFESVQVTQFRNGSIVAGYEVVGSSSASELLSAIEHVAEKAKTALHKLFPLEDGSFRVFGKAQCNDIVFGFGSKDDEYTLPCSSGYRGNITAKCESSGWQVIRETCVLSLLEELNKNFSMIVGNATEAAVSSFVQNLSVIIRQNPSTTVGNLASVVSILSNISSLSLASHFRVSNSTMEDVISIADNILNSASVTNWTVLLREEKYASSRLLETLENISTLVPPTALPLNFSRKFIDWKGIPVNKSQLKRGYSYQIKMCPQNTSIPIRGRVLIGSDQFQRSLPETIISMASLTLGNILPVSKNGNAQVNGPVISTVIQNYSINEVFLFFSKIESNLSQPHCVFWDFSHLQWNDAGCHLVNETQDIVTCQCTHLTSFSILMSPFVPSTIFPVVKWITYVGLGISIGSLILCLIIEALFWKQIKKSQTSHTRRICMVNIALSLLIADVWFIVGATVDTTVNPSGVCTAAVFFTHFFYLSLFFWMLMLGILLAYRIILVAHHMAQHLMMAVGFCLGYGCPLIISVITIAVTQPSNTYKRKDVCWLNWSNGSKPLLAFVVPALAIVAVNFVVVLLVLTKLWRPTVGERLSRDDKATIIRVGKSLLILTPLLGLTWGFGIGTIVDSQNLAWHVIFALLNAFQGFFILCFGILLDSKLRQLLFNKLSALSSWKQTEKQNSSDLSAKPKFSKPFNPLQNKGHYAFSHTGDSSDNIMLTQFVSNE
In short: as §1

[3] = n = 3, read-out: pEC50 (mean ± s.e.m.) (converted)

T1 sequence (Q5T601 20-910 L752A): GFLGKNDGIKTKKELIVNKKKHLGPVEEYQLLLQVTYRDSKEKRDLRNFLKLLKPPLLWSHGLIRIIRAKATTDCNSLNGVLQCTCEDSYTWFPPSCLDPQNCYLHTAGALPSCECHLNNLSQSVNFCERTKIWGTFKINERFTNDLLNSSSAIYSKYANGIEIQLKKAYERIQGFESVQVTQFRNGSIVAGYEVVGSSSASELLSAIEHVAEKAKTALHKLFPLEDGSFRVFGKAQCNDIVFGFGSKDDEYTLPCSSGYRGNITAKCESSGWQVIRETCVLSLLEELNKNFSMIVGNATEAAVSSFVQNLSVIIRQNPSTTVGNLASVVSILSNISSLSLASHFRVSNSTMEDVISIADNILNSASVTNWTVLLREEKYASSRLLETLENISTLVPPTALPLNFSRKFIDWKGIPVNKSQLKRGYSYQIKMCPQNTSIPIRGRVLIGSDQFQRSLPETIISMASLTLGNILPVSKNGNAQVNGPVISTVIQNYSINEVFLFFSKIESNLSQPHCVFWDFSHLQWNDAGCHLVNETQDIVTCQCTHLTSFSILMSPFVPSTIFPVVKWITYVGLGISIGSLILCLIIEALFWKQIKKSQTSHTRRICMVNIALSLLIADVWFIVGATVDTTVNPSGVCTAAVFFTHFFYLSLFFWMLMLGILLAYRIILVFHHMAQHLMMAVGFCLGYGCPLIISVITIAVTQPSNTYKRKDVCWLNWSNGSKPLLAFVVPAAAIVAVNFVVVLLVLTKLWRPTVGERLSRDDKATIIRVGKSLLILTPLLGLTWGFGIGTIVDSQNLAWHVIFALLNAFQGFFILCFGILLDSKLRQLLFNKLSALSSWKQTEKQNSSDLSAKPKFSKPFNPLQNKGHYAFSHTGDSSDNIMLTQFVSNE

- Emax (mean ± s.e.m.) (ADGRF1 [1]; n = 3): 90 ± 15 % of WT
- EC50 (ADGRF1 [1]; [3]): 513 nM
- Emax (mean ± s.e.m.) (ADGRF1 [2]; n = 3): 94 ± 15 % of WT
- EC50 (ADGRF1 [2]; [3]): 79.4 nM
Sequence: TSFSILMSPFVP [pF1]
